Active and inactive are the calls of the source.
How the values were obtained:
[1] = molecular target: G-protein coupled receptor 183 (Homo sapiens, UniProt P32249); assay: SAR confirmation of small molecule antagonists of the EBI2 receptor via a luminescent beta-arrestin assa.; type: functional
[2] = P. falciparum 3D7-ScDHODH growth inhibitors, dose response, SYBR Green, dry powder samples (AID 1159570); type: functional, cell-based;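 further: parasite growth measured after 72 hours of compound exposure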
[3] = HepG2 cell cytotoxicity, dose response, cytotoxicity control, cherry-picked samples (AID 1159577); type: functional, cell-based
[4] = P. falciparum ATP4 D1247Y mutant growth inhibitors, dose response, NITD609-resistant line, SYBR Green, dry powder (AID 1159571); type: functional, cell-based;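 further: parasites synchronized at ring stage by sorbitol before testing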
[5] = P. falciparum Dd2 growth inhibitors, dose response, SYBR Green, cherry-picked samples (AID 1159567); type: functional, cell-based
[6] = P. falciparum Dd2 growth inhibitors, dose response, SYBR Green, dry powder samples (AID 1159566); type: functional, cell-based;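 further: potency for growth inhibition with lower SYBR green DNA signal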
Danio rerio = assay: In Vivo Angiogenesis Dose-Response Confirmation. [Related pubchem assays: 732 (Assay preceding this confirmatory assay.)]; type: functional, organism-based
Transthyretin = Transthyretin (Homo sapiens, UniProt P02766); assay: Luminescence-based cell-based high throughput dose response assay to identify activators of Transthyretin (TTR) transcription.; type: functional
[7] = molecular target: Lysine-specific demethylase 4C (Homo sapiens, UniProt Q9H3R0); assay: GASC-1 (JMJD2C) histone demethylase inhibitors, dose response, biochemical, DELFIA europium, cherry-picked samples (AID 488835); type: functional
[8] = M. tuberculosis growth inhibition, HTS (AID 449762); type: functional
[9] = cytotoxicity in primary human melanocytes, dose response, cytotoxicity control, cell-based, plate reader, dry powder (AID 651920); type: functional
[10] = MITF Measured in Cell-Based System Using Plate Reader - 2084-01_Inhibitor_Dose_DryPowder_Activity_Set6.; type: functional
[11] = A375 melanoma cell cytotoxicity, dose response, counter-screen for MITF inhibitor project, CellTiter-Glo luminescence, dry powder, set 2 (AID 624489); type: functional, cell-based; conditions: A-375;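 further: actives are compounds lowering A375 viability meaning general cytotoxicity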
[12] = MALME3 melanoma cell viability reduction, dose response, orthogonal assay for MITF inhibitor project, CellTiter-Glo luminescence, dry powder, set 5 (AID 651584); type: functional, cell-based; conditions: MALME-3
[13] = MITF Measured in Cell-Based System Using Plate Reader - 2084-01_Inhibitor_Dose_DryPowder_Activity_Set7.; type: functional
[14] = TRPM1 promoter luciferase reporter signal decrease, dose response, MITF inhibitor project, cell-based, SK-MEL-5, dry powder, set 9 (AID 651588); type: functional
[15] = A375 melanoma cell viability loss, dose response, counter-screen for MITF modulator project, CellTiter-Glo luminescence, dry powder, set 9 (AID 651591); type: functional, cell-based; conditions: A-375
[16] = MITF Orthogonal Assay: MALME3 CTG Assay Measured in Cell-Based System Using Plate Reader - 2084-04_Inhibitor_Dose_DryPowder_Activity_Set6.; type: functional; conditions: MALME-3
[17] = A375 melanoma cell cytotoxicity, dose response, counter-screen for MITF inhibitor project, CellTiter-Glo luminescence, dry powder, set 6 (AID 624488); type: functional, cell-based; conditions: A-375
[18] = SK-MEL-5 parental cell viability reduction, dose response, orthogonal assay for MITF inhibitor project, CellTiter-Glo luminescence, dry powder, set 8 (AID 651586); type: functional, cell-based
[19] = SK-MEL-5 parental line viability, dose response, MITF inhibitor project, cell-based, CellTiter-Glo, dry powder, set 6 (AID 624429); type: functional
[20] = A375 melanoma cell cytotoxicity, dose response, counter-screen for MITF inhibitor project, CellTiter-Glo luminescence, dry powder, set 7 (AID 624490); type: functional, cell-based; conditions: A-375
[21] = MITF Orthogonal Assay: SK-MEL-5 CTG Assay Measured in Cell-Based System Using Plate Reader - 2084-02_Inhibitor_Dose_DryPowder_Activity_Set5.; type: functional
[22] = A375 melanoma cell viability loss, dose response, counter-screen for MITF inhibitor project, CellTiter-Glo luminescence, dry powder, set 4 (AID 624364); type: functional, cell-based; conditions: A-375;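 further: A375 melanoma cells are MITF independent so this is a counter screen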
[23] = molecular target: Dual specificity protein phosphatase 3 (Homo sapiens, UniProt P51452); assay: VHR phosphatase inhibition, dose response, selectivity assay for STEP inhibitor project, biochemical (AID 602374); type: functional; conditions: read-out: IC50_Mean
[24] = molecular target: Tyrosine-protein phosphatase non-receptor type 11 (Homo sapiens, UniProt Q06124); assay: SHP2 phosphatase inhibition, dose response, selectivity assay for STEP inhibitor project, biochemical (AID 602367); type: functional; conditions: read-out: IC50_Mean
[25] = molecular target: Tyrosine-protein phosphatase non-receptor type 5 (Homo sapiens, UniProt P54829); assay: STEP phosphatase inhibitors, confirmation, biochemical, fluorescence intensity, uHTS hits (AID 602372); type: functional; conditions: read-out: IC50_Mean
Genome polyprotein = Genome polyprotein (dengue virus type 2, UniProt P29990); assay: Dengue-2 NS5 methyltransferase inhibitors, primary screen, biochemical, confirmation dose response (AID 588689); type: functional
[26] = molecular target: T1, Carboxy-terminal domain RNA polymerase II polypeptide A small phosphatase 1 (Homo sapiens, UniProt Q9GZU7); assay: inhibitors of CTDSP1, concentration-response testing, biochemical assay, absorbance-based, actives from ultra-high-throughput screening (AID 540297); type: functional
T1 sequence (Q9GZU7 whole entry): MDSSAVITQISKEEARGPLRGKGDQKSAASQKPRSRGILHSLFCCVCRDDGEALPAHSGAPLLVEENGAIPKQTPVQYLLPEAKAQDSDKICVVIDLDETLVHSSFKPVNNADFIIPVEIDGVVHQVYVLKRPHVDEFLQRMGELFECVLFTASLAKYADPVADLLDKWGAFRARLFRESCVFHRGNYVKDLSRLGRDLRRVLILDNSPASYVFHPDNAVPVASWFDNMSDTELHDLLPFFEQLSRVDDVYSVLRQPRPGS

[27] = molecular target: Bifunctional protein GlmU (Mycobacterium tuberculosis, UniProt P9WMN3); assay: Inhibitors of Mycobacterial Glucosamine-1-phosphate acetyl transferase (GlmU). Secondary screen.; parameters: species or system Mycobacterium tuberculosis H37Rv
[28] = RKO cell viability reduction, dose response, CellTiter-Glo luminescence (AID 1117322); type: functional
[29] = HCT116 cell viability decrease, GSK3B pretreatment – CellTiter-Glo, IC50, dose response (AID 1117339); type: functional; conditions: HCT-116
[30] = cytotoxicity toward Colo320 cells – cell-based, CellTiter-Glo luminescence, IC50, dose response (AID 1117334); type: functional; conditions: COLO 320
[31] = SNU-C1 cell viability reduction, dose response, CellTiter-Glo luminescence (AID 1117323); type: functional, cell-based
[32] = cytotoxicity toward HT-29 cells – cell-based, CellTiter-Glo luminescence, IC50, dose response (AID 1117330); type: functional
[33] = CellTiter-Glo luminescent dose response of DLD-1 viability loss (AID 1117352); type: functional
[34] = Concentration-dependent survival of SW480 colon cancer line, luminescence detection with CellTiter-Glo, half-maximal inhibitory concentration (AID 1117338); type: functional
[35] = cytotoxicity toward HCT116 cells – cell-based, CellTiter-Glo luminescence, IC50, dose response (AID 1117332); type: functional; conditions: HCT-116

Lysine-specific demethylase 4C, sequence (Q9H3R0 whole entry): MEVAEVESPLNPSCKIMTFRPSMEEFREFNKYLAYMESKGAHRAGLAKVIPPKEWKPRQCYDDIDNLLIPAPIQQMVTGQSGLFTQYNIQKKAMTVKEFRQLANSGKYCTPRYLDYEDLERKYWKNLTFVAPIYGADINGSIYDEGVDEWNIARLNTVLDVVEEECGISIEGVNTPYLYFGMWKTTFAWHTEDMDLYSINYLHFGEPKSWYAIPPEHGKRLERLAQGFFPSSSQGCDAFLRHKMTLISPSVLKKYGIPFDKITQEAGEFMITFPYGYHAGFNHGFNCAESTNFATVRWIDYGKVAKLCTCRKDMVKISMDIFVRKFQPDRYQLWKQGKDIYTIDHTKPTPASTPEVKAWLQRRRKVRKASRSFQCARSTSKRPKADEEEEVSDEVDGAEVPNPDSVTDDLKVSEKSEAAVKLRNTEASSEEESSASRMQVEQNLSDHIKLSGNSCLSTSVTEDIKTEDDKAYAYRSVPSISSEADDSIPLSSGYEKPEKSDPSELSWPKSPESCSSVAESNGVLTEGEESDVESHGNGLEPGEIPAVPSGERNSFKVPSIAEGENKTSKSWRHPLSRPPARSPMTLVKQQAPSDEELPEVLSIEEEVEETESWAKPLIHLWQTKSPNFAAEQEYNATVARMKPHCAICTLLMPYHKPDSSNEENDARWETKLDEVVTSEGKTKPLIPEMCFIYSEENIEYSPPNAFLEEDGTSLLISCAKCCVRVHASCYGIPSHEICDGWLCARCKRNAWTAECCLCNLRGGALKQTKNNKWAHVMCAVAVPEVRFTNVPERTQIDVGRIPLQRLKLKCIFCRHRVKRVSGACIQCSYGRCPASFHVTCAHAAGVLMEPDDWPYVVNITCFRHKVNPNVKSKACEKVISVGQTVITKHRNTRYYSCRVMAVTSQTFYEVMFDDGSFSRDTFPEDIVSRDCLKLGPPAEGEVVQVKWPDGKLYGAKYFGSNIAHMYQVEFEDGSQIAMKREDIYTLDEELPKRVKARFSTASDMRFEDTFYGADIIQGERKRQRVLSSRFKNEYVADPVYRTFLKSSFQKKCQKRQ
Tyrosine-protein phosphatase non-receptor type 5, sequence (P54829 whole entry): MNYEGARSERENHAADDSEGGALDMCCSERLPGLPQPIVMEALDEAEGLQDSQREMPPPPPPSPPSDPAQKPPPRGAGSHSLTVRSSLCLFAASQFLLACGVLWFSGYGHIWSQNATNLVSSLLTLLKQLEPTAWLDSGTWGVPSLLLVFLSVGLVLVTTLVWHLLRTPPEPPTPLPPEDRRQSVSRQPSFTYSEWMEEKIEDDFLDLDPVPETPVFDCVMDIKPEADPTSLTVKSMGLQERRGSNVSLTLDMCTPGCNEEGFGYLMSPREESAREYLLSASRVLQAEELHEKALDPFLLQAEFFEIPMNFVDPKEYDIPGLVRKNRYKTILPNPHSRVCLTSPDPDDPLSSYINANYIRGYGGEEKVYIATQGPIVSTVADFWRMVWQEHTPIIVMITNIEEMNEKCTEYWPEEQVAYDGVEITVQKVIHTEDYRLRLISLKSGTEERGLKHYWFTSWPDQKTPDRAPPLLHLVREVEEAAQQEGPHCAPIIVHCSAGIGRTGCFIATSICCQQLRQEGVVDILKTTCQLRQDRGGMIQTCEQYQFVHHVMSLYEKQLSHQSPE
G-protein coupled receptor 183, sequence (P32249 whole entry): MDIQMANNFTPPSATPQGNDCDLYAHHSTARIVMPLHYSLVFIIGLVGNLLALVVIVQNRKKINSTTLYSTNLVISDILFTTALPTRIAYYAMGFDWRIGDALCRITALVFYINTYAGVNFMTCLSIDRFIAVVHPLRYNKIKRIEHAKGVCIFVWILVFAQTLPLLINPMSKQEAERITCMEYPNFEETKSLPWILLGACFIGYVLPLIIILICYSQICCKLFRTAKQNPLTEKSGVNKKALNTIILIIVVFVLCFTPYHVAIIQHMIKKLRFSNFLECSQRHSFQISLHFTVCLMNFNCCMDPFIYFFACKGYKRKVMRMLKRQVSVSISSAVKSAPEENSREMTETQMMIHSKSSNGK
Tyrosine-protein phosphatase non-receptor type 11, sequence (Q06124 whole entry): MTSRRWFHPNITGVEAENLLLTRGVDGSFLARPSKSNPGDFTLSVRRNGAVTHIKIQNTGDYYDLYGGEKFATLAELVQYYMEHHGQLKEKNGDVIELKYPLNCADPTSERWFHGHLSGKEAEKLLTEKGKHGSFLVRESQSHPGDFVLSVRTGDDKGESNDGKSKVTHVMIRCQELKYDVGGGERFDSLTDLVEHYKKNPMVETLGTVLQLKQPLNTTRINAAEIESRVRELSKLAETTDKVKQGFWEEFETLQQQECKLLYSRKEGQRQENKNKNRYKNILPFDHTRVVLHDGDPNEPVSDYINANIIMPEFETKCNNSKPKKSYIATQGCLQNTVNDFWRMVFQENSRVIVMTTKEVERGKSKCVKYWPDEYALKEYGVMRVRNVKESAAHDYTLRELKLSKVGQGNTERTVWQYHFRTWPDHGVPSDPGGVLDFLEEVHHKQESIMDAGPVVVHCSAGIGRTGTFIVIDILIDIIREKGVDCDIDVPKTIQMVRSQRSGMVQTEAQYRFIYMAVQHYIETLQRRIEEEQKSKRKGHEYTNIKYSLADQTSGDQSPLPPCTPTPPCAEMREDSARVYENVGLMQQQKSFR
Dual specificity protein phosphatase 3, sequence (P51452 whole entry): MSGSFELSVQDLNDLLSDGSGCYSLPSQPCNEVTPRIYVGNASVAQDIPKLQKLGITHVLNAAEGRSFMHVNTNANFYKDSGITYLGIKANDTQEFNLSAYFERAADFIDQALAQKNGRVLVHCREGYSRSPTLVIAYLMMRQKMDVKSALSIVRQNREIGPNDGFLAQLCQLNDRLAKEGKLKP
Genome polyprotein, sequence (P29990 2492-3391 limits assumed): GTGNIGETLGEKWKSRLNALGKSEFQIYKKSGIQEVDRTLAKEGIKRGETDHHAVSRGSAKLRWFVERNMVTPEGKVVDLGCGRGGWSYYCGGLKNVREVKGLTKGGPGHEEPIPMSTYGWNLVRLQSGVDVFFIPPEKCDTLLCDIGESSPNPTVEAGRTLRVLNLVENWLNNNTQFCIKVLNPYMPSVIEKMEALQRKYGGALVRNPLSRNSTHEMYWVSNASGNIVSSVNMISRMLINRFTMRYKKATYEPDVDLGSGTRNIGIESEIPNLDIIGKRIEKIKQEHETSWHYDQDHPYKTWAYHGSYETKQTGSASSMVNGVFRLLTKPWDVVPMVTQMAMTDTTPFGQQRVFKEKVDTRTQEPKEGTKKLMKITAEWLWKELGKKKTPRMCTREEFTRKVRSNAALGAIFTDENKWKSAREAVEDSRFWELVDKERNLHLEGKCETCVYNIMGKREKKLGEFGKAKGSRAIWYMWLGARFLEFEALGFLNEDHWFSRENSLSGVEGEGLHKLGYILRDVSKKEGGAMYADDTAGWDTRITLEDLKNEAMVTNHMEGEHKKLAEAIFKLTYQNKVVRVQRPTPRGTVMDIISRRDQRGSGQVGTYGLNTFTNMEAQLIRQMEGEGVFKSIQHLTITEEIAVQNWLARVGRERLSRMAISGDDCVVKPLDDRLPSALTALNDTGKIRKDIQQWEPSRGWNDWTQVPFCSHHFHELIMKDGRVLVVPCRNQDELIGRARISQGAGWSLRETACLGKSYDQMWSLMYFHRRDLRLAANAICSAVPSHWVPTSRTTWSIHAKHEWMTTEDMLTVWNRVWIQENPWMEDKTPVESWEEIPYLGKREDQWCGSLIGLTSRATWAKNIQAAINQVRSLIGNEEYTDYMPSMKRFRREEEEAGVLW
Bifunctional protein GlmU, sequence (P9WMN3 whole entry): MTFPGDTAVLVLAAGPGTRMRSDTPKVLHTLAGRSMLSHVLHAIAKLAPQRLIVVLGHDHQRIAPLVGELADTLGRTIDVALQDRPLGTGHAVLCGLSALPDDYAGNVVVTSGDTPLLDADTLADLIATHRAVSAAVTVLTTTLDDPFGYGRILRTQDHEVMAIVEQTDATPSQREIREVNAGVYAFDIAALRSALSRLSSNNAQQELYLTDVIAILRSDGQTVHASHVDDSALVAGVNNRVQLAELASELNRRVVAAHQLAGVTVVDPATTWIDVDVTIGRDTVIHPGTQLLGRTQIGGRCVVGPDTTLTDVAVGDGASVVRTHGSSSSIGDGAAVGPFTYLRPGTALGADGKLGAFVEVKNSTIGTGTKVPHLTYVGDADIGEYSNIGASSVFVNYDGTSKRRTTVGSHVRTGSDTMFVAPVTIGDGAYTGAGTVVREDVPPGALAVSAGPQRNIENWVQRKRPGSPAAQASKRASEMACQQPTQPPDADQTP

## O=C(/C=C/c1ccc(F)cc1)N1CCN(S(=O)(=O)c2ccc([N+](=O)[O-])cc2)CC1
[1]
  IC50: 0.0129 µM (active)

## C[C@H](CO)N1C[C@H](C)[C@@H](CN(C)CC2CC2)Oc2ccc(NC(=O)Nc3cccc4ccccc34)cc2CC1=O
[2]
  AC50: 2.09 µM (active)
[3]
  AC50: > 39 µM (inactive)
[4]
  AC50: 3.39 µM (active)
[5]
  AC50: 2.93 µM (active)
[6]
  AC50: 1.72 µM (active)

## Cc1cccc2c1NC(=O)/C2=C1\Nc2ccc(Br)cc2\C1=N/O
Danio rerio
  IC50: 4.01 µM (not active)

## Cc1ccc(C2CC(c3ccccc3)=NN2C(S)=Nc2ccccc2)o1 (stereo not drawn)
Transthyretin
  EC50: > 167 µM (inactive)
[7]
  AC50: 20.5 µM (active)

## CC(=O)N1C(Nc2ccc(Cl)cc2)CCN1c1ccccc1 (stereo not drawn)
[8]
  IC50: > 100 µM (active)

## NC1=CC(=O)c2ccccc2C1=O
[9]
  AC50: 25.1 µM (active)
[10]
  AC50: 4.14 µM (active)
[11]
  AC50: 65.7 µM (active)
[12]
  AC50: 9.48 µM (active)
[13]
  AC50: 1.28 µM (active)
[14]
  AC50: 12.1 µM (active)
[15]
  AC50: > 70 µM (inactive)
[16]
  AC50: 9.48 µM (active)
[17]
  AC50: 56.9 µM (active)
[18]
  AC50: 8.76 µM (active)
[19]
  AC50: 6.75 µM (active)
[20]
  AC50: 45.7 µM (active)
[21]
  AC50: 5.13 µM (active)
[22]
  AC50: > 70 µM (inactive)

## CCc1c(C)[nH]n(-c2ccc(Oc3ccccc3)c(S(=O)(=O)O)c2)c1=O
[23]
  IC50: 3.6 µM (active)
[24]
  IC50: 3.1 µM (active)
[25]
  IC50: 58.8 µM (inactive)
Genome polyprotein
  IC50: 84.5 µM (active)
[26]
  IC50: 4.83 µM (active)
[27]
  IC50: 157 µM (active)

## C=CCCCCCCCCC(=O)OC
[28]
  IC50: > 20 µM (inactive)
[29]
  IC50: > 20 µM (inactive)
[30]
  IC50: > 20 µM (inactive)
[31]
  IC50: > 20 µM (inactive)
[32]
  IC50: > 20 µM (inactive)
[33]
  IC50: > 20 µM (inactive)
[34]
  IC50: > 20 µM (inactive)
[35]
  IC50: > 20 µM (inactive)

Reference: ChEMBL document CHEMBL1201862, “PubChem BioAssay data set” (2004)
